Data: the supplement of paper PMC8967900

Key:
Assay in all cases: selective drug sensitivity score (sDSS, relative to normal bone marrow) (sDSS (score)); higher = more potent and effective on the cell line relative to normal bone marrow cells
Settings in all cases: 72 h
380 = tested on: 380
697 = tested on: 697
ALL-PO = tested on: ALL-PO
CCRF-HSB2 = tested on: CCRF-HSB2
COG-LL-394h = tested on: COG-LL-394h
COG-LL-402h = tested on: COG-LL-402h
DND-41 = tested on: DND-41
JURKAT = tested on: JURKAT
KASUMI-10 = tested on: KASUMI-10
KASUMI-2 = tested on: KASUMI-2
KASUMI-9 = tested on: KASUMI-9
LC4-1 = tested on: LC4-1
MHH-CALL-3 = tested on: MHH-CALL-3
NALL-1 = tested on: NALL-1
NALM-16 = tested on: NALM-16
P12-ICHIKAWA = tested on: P12-ICHIKAWA
PEER = tested on: PEER
RPMI-8402 = tested on: RPMI-8402
SEM cells = tested on: SEM cells
SUP-B15 = tested on: SUP-B15
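Also: ALL cell lines in 384-well plates, five doses spanning 10,000-fold, each plate scaled between vehicle and 100 µmol/L benzalkonium chloride controls, sDSS an adapted area-under-curve metric.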

Compound | selective drug sensitivity score 380 | selective drug sensitivity score 697 | selective drug sensitivity score (ALL-PO) | selective drug sensitivity score (CCRF-HSB2) | selective drug sensitivity score (COG-LL-394h) | selective drug sensitivity score (COG-LL-402h) | selective drug sensitivity score (DND-41) | selective drug sensitivity score (JURKAT) | selective drug sensitivity score (KASUMI-10) | selective drug sensitivity score (KASUMI-2) | selective drug sensitivity score (KASUMI-9) | selective drug sensitivity score (LC4-1) | selective drug sensitivity score (MHH-CALL-3) | selective drug sensitivity score (NALL-1) | selective drug sensitivity score (NALM-16) | selective drug sensitivity score (P12-ICHIKAWA) | selective drug sensitivity score (PEER) | selective drug sensitivity score (RPMI-8402) | selective drug sensitivity score (SEM cells) | selective drug sensitivity score (SUP-B15)
CCS(=O)(=O)Nc1ccc(Oc2ccc(F)cc2F)c(-c2cn(C)c(=O)c3[nH]ccc23)c1 [Mivebresib] (top concentration 10000 nM) | -13 | 16.5 | 6.1 | 1.3 | 1.6 | 12.7 | 1.5 | 3.55e-15 | 10.9 | -14.8 | 17.4 | 8.9 | 17.2 | 0.6 | 0.5 | 9.9 | 1.1 | 4.6 | 16 | 7.8
CCS(=O)(=O)N1CC(CC#N)(n2cc(-c3ncnc4[nH]ccc34)cn2)C1 [Baricitinib] (top concentration 2500 nM) | -1.94 | -1.94 | -1.94 | -1.94 | -1.94 | -1.94 | 3.66 | -1.94 | -1.94 | -1.94 | -1.94 | -1.94 | -1.94 | -1.94 | -1.94 | -1.94 | 0.96 | -1.94 | -1.94 | -1.94
COc1cc(C(=O)O)ccc1NC(=O)[C@@H]1N[C@@H](CC(C)(C)C)[C@](C#N)(c2ccc(Cl)cc2F)[C@H]1c1cccc(Cl)c1F [Idasanutlin] (top concentration 10000 nM) | 23.5 | 16.8 | -12.5 | 15.5 | 4.96 | 15.4 | -11 | -7.74 | 18.4 | 18.2 | 23 | 19.1 | 21.9 | -8.44 | -8.74 | -11.5 | -9.04 | -12.5 | -10 | 29.3
C[C@@H]1CN(C(=O)c2ccc(NC(=O)c3cc(O[C@H](C)c4c(Cl)ccc(F)c4Cl)c(N)nn3)cc2)C[C@H](C)N1 [Ensartinib] (top concentration 1000 nM) | 0.06 | 0.26 | 0.26 | -0.64 | 0.86 | -2.34 | -2.84 | -2.54 | -2.84 | -1.54 | 0.76 | -1.44 | -2.84 | -2.84 | -2.14 | -2.54 | 1.96 | 0.06 | -0.34 | 3.86
COc1cc(CCc2cc(NC(=O)c3ccc(N4CC(C)NC(C)C4)cc3)n[nH]2)cc(OC)c1 (stereo not given) [AZD4547] (top concentration 1000 nM) | -0.14 | -0.04 | 0.46 | -0.14 | 0.16 | -0.14 | 1.66 | -0.14 | 1.36 | 0.26 | -0.14 | 0.66 | -0.14 | -0.14 | 0.56 | -0.14 | -0.14 | -0.14 | 0.36 | -0.14
CN1CC[C@@H](NC(=O)Nc2ccc(C#N)cc2)C[C@@H]1c1nc2ccccc2[nH]1 [Glasdegib] (top concentration 1000 nM) | 0 | 0 | 0 | 0 | 0 | 0 | 2.9 | 0 | 0 | 11.9 | 0 | 0 | 0.7 | 0.1 | 0 | 0 | 0 | 0 | 0 | 0
O=C1CCC(N2C(=O)c3ccccc3C2=O)C(=O)N1 (stereo not given) [Thalidomide] (top concentration 10000 nM) | -0.14 | -0.14 | -0.14 | -0.14 | -0.14 | -0.14 | -0.14 | -0.14 | -0.14 | -0.14 | -0.14 | -0.14 | -0.14 | -0.14 | -0.14 | -0.14 | -0.14 | -0.14 | -0.14 | -0.14
CCCCC(=O)OCC(=O)[C@]1(O)Cc2c(O)c3c(c(O)c2[C@@H](O[C@H]2C[C@H](NC(=O)C(F)(F)F)[C@H](O)[C@H](C)O2)C1)C(=O)c1c(OC)cccc1C3=O [Valrubicin] (top concentration 5000 nM) | 13 | 8.58 | -2.62 | 15.6 | 7.78 | 13.8 | -1.02 | 4.98 | 8.48 | 8.38 | 5.68 | 2.98 | 16 | -1.82 | -3.22 | 8.48 | -9.32 | 6.88 | 6.58 | 12.2
CCN(c1cc(-c2ccc(CN3CCOCC3)cc2)cc(C(=O)NCc2c(C)cc(C)[nH]c2=O)c1C)C1CCOCC1 [Tazemetostat] (top concentration 10000 nM) | -0.08 | 0.32 | 0.32 | 1.42 | -0.08 | -0.08 | 0.02 | 0.02 | -0.08 | -0.08 | 0.92 | -0.08 | -0.08 | 8.22 | -0.08 | 0.02 | 0.32 | 0.22 | 2.42 | -0.08
CN1CCN(C2CCN(C(=O)Nc3cc(Oc4ccc(NC(=O)C5(C(=O)Nc6ccc(F)cc6)CC5)c(F)c4)ccn3)CC2)CC1 [Golvatinib] (top concentration 2500 nM) | -0.14 | 1.76 | 3.16 | 2.96 | 2.26 | -0.14 | -0.04 | -0.14 | 3.26 | -0.14 | 0.66 | 2.46 | -0.14 | -0.14 | -0.14 | -0.14 | 2.46 | 0.26 | 6.56 | 3.56
CC(O)c1cc(C(=O)N[C@@H](C)Cn2ccc(-c3ccc(C#N)c(Cl)c3)n2)n[nH]1 (stereo not given in full) [ODM-201] (top concentration 2500 nM) | -0.08 | 0.12 | 0.52 | 1.62 | -0.28 | 4.62 | 2.12 | 0.72 | -0.28 | -0.28 | -0.18 | 1.62 | 0.82 | -0.28 | -0.28 | 0.22 | 1.02 | 0.12 | -0.28 | 4.22
CC[C@@H]1CN(C(=O)NCC(F)(F)F)C[C@@H]1c1cnc2cnc3[nH]ccc3n12 [Upadacitinib] (top concentration 10000 nM) | -0.16 | -6.06 | -7.16 | -5.06 | -7.16 | -7.16 | 0.84 | -6.86 | -7.16 | -6.56 | -2.76 | -5.16 | -0.46 | -7.16 | -7.16 | -7.16 | -6.66 | -7.16 | -7.16 | -7.16
CN1CCN(C(=O)c2ccc3cc(CCNc4ncnc5ccc(C#N)cc45)ccc3c2)CC1 [Senexin_B] (top concentration 1000 nM) | -0.6 | 2.1 | -0.6 | 3.8 | 1 | -0.4 | -0.6 | 3.1 | 4.5 | -0.6 | -0.6 | -0.6 | -0.1 | -0.6 | -0.6 | 0.4 | 1.8 | 1.1 | -0.6 | 2.8
CCCCOc1nc(N)c2c(n1)N(Cc1cccc(CN3CCCC3)c1)CC(=O)N2 [Vesatolimod] (top concentration 10000 nM) | -3.52 | -3.42 | -3.52 | -3.52 | -3.32 | -3.52 | -2.12 | -3.42 | -3.52 | -3.52 | -2.92 | -3.52 | -3.52 | -3.52 | -3.52 | -3.52 | -3.52 | -3.52 | -3.52 | -3.52
COc1cc2c(Nc3ccc(Cl)c(Cl)c3F)ncnc2cc1OC[C@@H]1C[C@@H]2CN(C)C[C@@H]2C1 [Tesevatinib] (top concentration 1000 nM) | -0.96 | -0.66 | 2.34 | 3.44 | -0.36 | 1.64 | 1.44 | -0.16 | -1.06 | -1.36 | 0.74 | -1.16 | 3.64 | -0.06 | -1.36 | -0.46 | 1.84 | 0.44 | 1.44 | -1.36
CCC1(c2ccc(N)cc2)CCC(=O)NC1=O (stereo not given) [Aminoglutethimide] (top concentration 10000 nM) | 0 | 0 | 0 | 0 | 0 | 0 | 0 | 0 | 0 | 0 | 0.6 | 0 | 0 | 0 | 0 | 0 | 0 | 0 | 0.3 | 0
CCC1=C[C@@H]2CN(C1)Cc1c([nH]c3ccccc13)[C@@](C(=O)OC)(c1cc3c(cc1OC)N(C)[C@H]1[C@@](O)(C(=O)OC)[C@H](OC(C)=O)[C@]4(CC)C=CCN5CC[C@]31[C@@H]54)C2 [Vinorelbine] (top concentration 10000 nM) | 23.3 | 25 | 17.5 | 20.1 | 9.58 | 22.2 | 11.8 | 23.5 | 15.7 | 17.8 | 24.2 | 23.4 | 11 | 16.1 | 18.3 | 15.9 | 19.8 | 21 | 24.1 | 27.2
O=C(O)CCCCC(CCSCc1ccccc1)SCc1ccccc1 (stereo not given) [Devimistat (CPI-613)] (top concentration 10000 nM) | 1.9 | 0 | 0 | 0.3 | 0 | 0 | 0.6 | 0 | 0 | 0 | 0 | 2.1 | 1 | 0.1 | 0.4 | 0 | 0.1 | 0 | 0.6 | 0
